Measured values taken from the NIST ThermoML archive (doi:10.1016/j.tca.2018.08.017).
Several values for one entry are separate records, joined by “and”; a condition that tells them apart may be missing. Equal entries are not always repeated.

Conditions: 101.33 kPa, Liquid

CCCCCCCCCCCCCCCCCC [octadecane]
viscosity
Conditions	Concentric cylinders viscometry	Cone and plate viscometry
309.68 K	3.276 mPa·s	–
309.75 K	–	3.24 mPa·s
309.85 K	–	3.3 mPa·s
309.95 K	–	3.22 mPa·s and 3.2 mPa·s
310.04 K	3.245 mPa·s	–
310.15 K	–	3.21 mPa·s and 3.28 mPa·s and 3.42 mPa·s
310.25 K	–	3.18 mPa·s
310.32 K	3.229 mPa·s	–
310.35 K	–	3.22 mPa·s and 3.26 mPa·s
310.41 K	3.218 mPa·s	–
310.55 K	–	3.18 mPa·s
310.65 K	–	3.25 mPa·s and 3.14 mPa·s and 3.38 mPa·s
310.75 K	–	3.17 mPa·s
310.77 K	3.19 mPa·s	–
310.85 K	–	3.24 mPa·s
310.95 K	–	3.15 mPa·s and 3.12 mPa·s
311.04 K	3.171 mPa·s	–
311.15 K	–	3.14 mPa·s and 3.22 mPa·s and 3.35 mPa·s
311.16 K	3.159 mPa·s	–
311.35 K	–	3.14 mPa·s and 3.2 mPa·s and 3.1 mPa·s
311.54 K	3.13 mPa·s	–
311.55 K	–	3.14 mPa·s
311.65 K	–	3.19 mPa·s and 3.32 mPa·s
311.75 K	–	3.12 mPa·s and 3.07 mPa·s
311.78 K	3.118 mPa·s	–
311.85 K	–	3.17 mPa·s
311.95 K	–	3.11 mPa·s
311.96 K	3.099 mPa·s	–
312.05 K	–	3.05 mPa·s
312.15 K	–	3.1 mPa·s and 3.15 mPa·s and 3.28 mPa·s
312.33 K	3.071 mPa·s	–
312.35 K	–	3.1 mPa·s and 3.14 mPa·s
312.45 K	3.065 mPa·s	3.04 mPa·s
312.55 K	–	3.07 mPa·s
312.65 K	–	3.12 mPa·s and 3.26 mPa·s
312.69 K	3.043 mPa·s	–
312.75 K	–	3.07 mPa·s and 3.01 mPa·s
312.85 K	–	3.1 mPa·s
312.95 K	–	3.07 mPa·s
313.15 K	–	3.04 mPa·s [middle of 6 runs]
313.18 K	3.011 mPa·s and 3.01 mPa·s	–
313.24 K	3.009 mPa·s	–
313.25 K	3.009 mPa·s	–
313.26 K	3.008 mPa·s and 3.011 mPa·s	–
313.34 K	3.01 mPa·s	–
313.35 K	–	3.01 mPa·s and 3.07 mPa·s
313.45 K	–	2.98 mPa·s
313.55 K	2.985 mPa·s	3.01 mPa·s
313.65 K	–	3.05 mPa·s and 3.21 mPa·s
313.75 K	–	3.01 mPa·s
313.85 K	–	3.04 mPa·s and 2.96 mPa·s
313.93 K	2.956 mPa·s	–
313.95 K	–	3 mPa·s
314 K	2.951 mPa·s	–
314.15 K	–	2.99 mPa·s and 3.02 mPa·s and 3.18 mPa·s
314.25 K	–	2.93 mPa·s
314.3 K	2.931 mPa·s	–
314.35 K	–	2.96 mPa·s and 3.01 mPa·s
314.55 K	–	2.97 mPa·s and 2.92 mPa·s
314.65 K	2.907 mPa·s	3 mPa·s and 3.16 mPa·s
314.67 K	2.905 mPa·s	–
314.75 K	–	2.97 mPa·s
314.85 K	–	2.98 mPa·s
314.95 K	–	2.94 mPa·s and 2.9 mPa·s
315.01 K	2.882 mPa·s	–
315.15 K	–	2.96 mPa·s and 2.97 mPa·s and 3.13 mPa·s
315.35 K	–	2.91 mPa·s and 2.95 mPa·s and 2.88 mPa·s
315.41 K	2.854 mPa·s	–
315.43 K	2.857 mPa·s	–
315.55 K	–	2.91 mPa·s
315.65 K	–	2.94 mPa·s and 2.87 mPa·s and 3.1 mPa·s
315.75 K	–	2.9 mPa·s
315.77 K	2.833 mPa·s	–
315.85 K	–	2.92 mPa·s
315.95 K	–	2.89 mPa·s
316.05 K	–	2.84 mPa·s
316.12 K	2.81 mPa·s	–
316.13 K	2.812 mPa·s	–
316.15 K	–	2.88 mPa·s and 2.9 mPa·s and 3.08 mPa·s
316.35 K	–	2.88 mPa·s and 2.89 mPa·s and 2.83 mPa·s
316.5 K	2.785 mPa·s	–
316.55 K	–	2.88 mPa·s
316.65 K	–	2.87 mPa·s and 2.81 mPa·s and 3.06 mPa·s
316.75 K	–	2.88 mPa·s
316.81 K	2.771 mPa·s	–
316.83 K	2.763 mPa·s	–
316.85 K	–	2.86 mPa·s
316.95 K	–	2.88 mPa·s
317.15 K	–	2.86 mPa·s [middle of 4 runs]
317.2 K	2.74 mPa·s	–
317.35 K	–	2.83 mPa·s and 2.84 mPa·s
317.45 K	–	2.79 mPa·s
317.46 K	2.732 mPa·s	–
317.55 K	–	2.82 mPa·s
317.61 K	2.715 mPa·s	–
317.65 K	–	2.84 mPa·s and 3.02 mPa·s
317.75 K	–	2.84 mPa·s and 2.83 mPa·s
317.95 K	–	2.82 mPa·s and 2.83 mPa·s
317.96 K	2.694 mPa·s	–
318.08 K	2.693 mPa·s	–
318.15 K	–	2.83 mPa·s [middle of 5 runs]
318.26 K	2.679 mPa·s	–
318.43 K	2.672 mPa·s	–
318.45 K	2.665 mPa·s	–
318.49 K	2.653 mPa·s	–
318.5 K	2.654 mPa·s	–
318.53 K	2.655 mPa·s	–
318.57 K	2.661 mPa·s	–
318.58 K	2.662 mPa·s	–
318.59 K	2.655 mPa·s	–
318.6 K	2.659 mPa·s	–
318.61 K	2.657 mPa·s	–
318.64 K	2.654 mPa·s	–
318.65 K	2.66 mPa·s	–
318.69 K	2.655 mPa·s	–
